Values joined by “and” are separate entries in the source; they are usually repeats but may differ in a detail not shown here. Equal values may be shown once. Inconclusive results and toxic doses are left out. No stated cut-off is given here; in the data, active means T/C of 150% or more; inactive means T/C below 125%.
Tested on: L1210 leukemia ip in BDF1 mice, survival T/C
Assay: NCI In Vivo Anticancer Drug Screen. Data for tumor model L1210 Leukemia (intraperitoneal) in B6D2F1 (BDF1) mice
Details: endpoint: mean survival time, higher = longer survival
How it was run: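 Each compound was tested against a transplantable tumor grown in mice. The endpoint was survival, with treated animals benchmarked against vehicle controls as a simple ratio.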

[1] = dose: 100.0 mg/kg/injection, schedule: Q04DX002 (ip), vehicle: Klucel (hydroxypropylcellulose) (HPC)
[2] = dose: 200.0 mg/kg/injection, schedule: Q04DX002 (ip), vehicle: Klucel (hydroxypropylcellulose) (HPC)
[3] = dose: 400.0 mg/kg/injection, schedule: Q04DX002 (ip), vehicle: Klucel (hydroxypropylcellulose) (HPC)
[4] = dose: 100.0 mg/kg/injection, schedule: Q01DX001 (ip), vehicle: other
[5] = dose: 200.0 mg/kg/injection, schedule: Q01DX001 (ip), vehicle: other
[6] = dose: 400.0 mg/kg/injection, schedule: Q01DX001 (ip), vehicle: other
[7] = dose: 100.0 mg/kg/injection, schedule: Q01DX009 (ip), vehicle: Klucel (hydroxypropylcellulose) (HPC)
[8] = dose: 100.0 mg/kg/injection, schedule: Q04DX003 (ip), vehicle: other
[9] = dose: 200.0 mg/kg/injection, schedule: Q01DX009 (ip), vehicle: Klucel (hydroxypropylcellulose) (HPC)
[10] = dose: 200.0 mg/kg/injection, schedule: Q04DX003 (ip), vehicle: other
[11] = dose: 400.0 mg/kg/injection, schedule: Q01DX009 (ip), vehicle: Klucel (hydroxypropylcellulose) (HPC)
[12] = dose: 100.0 mg/kg/injection, schedule: Q04DX003 (ip), vehicle: Klucel (hydroxypropylcellulose) (HPC)
[13] = dose: 200.0 mg/kg/injection, schedule: Q04DX003 (ip), vehicle: Klucel (hydroxypropylcellulose) (HPC)
[14] = dose: 400.0 mg/kg/injection, schedule: Q04DX003 (ip), vehicle: Klucel (hydroxypropylcellulose) (HPC)
[15] = dose: 100.0 mg/kg/injection, schedule: Q01DX001 (ip), vehicle: saline with Tween-80
[16] = dose: 200.0 mg/kg/injection, schedule: Q01DX001 (ip), vehicle: saline with Tween-80
[17] = dose: 100.0 mg/kg/injection, schedule: Q01DX009 (ip), vehicle: saline
[18] = dose: 100.0 mg/kg/injection, schedule: Q04DX003 (ip), vehicle: saline

Measured: T/C

COc1ccc(C(=O)Nc2ccc(F)cc2)cc1
inactive: dose: 100.0 mg/kg/injection, schedule: Q01DX009 (ip), vehicle: carboxymethylcellulose (CMC) 100 % of control and 105 % of control | [1] 115 % of control | dose: 100.0 mg/kg/injection, schedule: Q04DX002 (ip), vehicle: carboxymethylcellulose (CMC) 103 % of control | dose: 100.0 mg/kg/injection, schedule: Q04DX003 (ip), vehicle: carboxymethylcellulose (CMC) 101 % of control | dose: 200.0 mg/kg/injection, schedule: Q01DX009 (ip), vehicle: carboxymethylcellulose (CMC) 94 % of control and 89 % of control | [2] 102 % of control | dose: 200.0 mg/kg/injection, schedule: Q04DX002 (ip), vehicle: carboxymethylcellulose (CMC) 93 % of control and 95 % of control | dose: 200.0 mg/kg/injection, schedule: Q04DX003 (ip), vehicle: carboxymethylcellulose (CMC) 106 % of control | dose: 400.0 mg/kg/injection, schedule: Q01DX009 (ip), vehicle: carboxymethylcellulose (CMC) 87 % of control | [3] 108 % of control | dose: 400.0 mg/kg/injection, schedule: Q04DX002 (ip), vehicle: carboxymethylcellulose (CMC) 93 % of control and 100 % of control | dose: 400.0 mg/kg/injection, schedule: Q04DX003 (ip), vehicle: carboxymethylcellulose (CMC) 102 % of control

Oc1ccccc1/C=N\N=C\c1ccccc1O
inactive: dose: 50.0 mg/kg/injection, schedule: Q04DX002 (ip), vehicle: Klucel (hydroxypropylcellulose) (HPC) 93 % of control | [4] 97 % of control | [1] 101 % of control | [5] 103 % of control | [2] 112 % of control | [6] 94 % of control

CC1CN(C(C)(C)C)C1
inactive: dose: 100.0 mg/kg/injection, schedule: Q04DX003 (ip), vehicle: acetone 95 % of control

CN(C)C(=O)Sc1ccc2ccc3ccccc3c2c1
inactive: dose: 50.0 mg/kg/injection, schedule: Q04DX002 (ip), vehicle: saline with Tween-80 108 % of control | dose: 100.0 mg/kg/injection, schedule: Q04DX002 (ip), vehicle: saline with Tween-80 104 % of control | dose: 200.0 mg/kg/injection, schedule: Q04DX002 (ip), vehicle: saline with Tween-80 108 % of control

CS(C)(C)N1C(=O)c2ccccc2C1=O
inactive: dose: 87.5 mg/kg/injection, schedule: Q01DX009 (ip), vehicle: Klucel (hydroxypropylcellulose) (HPC) 98 % of control | dose: 175.0 mg/kg/injection, schedule: Q01DX009 (ip), vehicle: Klucel (hydroxypropylcellulose) (HPC) 96 % of control

CC(=O)OCCSc1ccc(C)cc1
inactive: [1] 100 % of control | [2] 103 % of control | [3] 100 % of control

Cc1ccc([Si](O)(c2ccc(C)cc2)c2ccc(C)cc2)cc1
inactive: [4] 97 % of control | [5] 97 % of control | [6] 100 % of control

NC(N)=N/N=C/C(=N\N=C(N)N)C(O)CO (stereo not given)
inactive: dose: 75.0 mg/kg/injection, schedule: Q01DX001 (ip), vehicle: saline 109 % of control and 100 % of control | dose: 150.0 mg/kg/injection, schedule: Q01DX001 (ip), vehicle: saline 105 % of control and 106 % of control | dose: 300.0 mg/kg/injection, schedule: Q01DX001 (ip), vehicle: saline 101 % of control and 105 % of control

Cc1ccc(C)c2c(Cl)c3c(C)ccc(C)c3nc12
inactive: [7] 98 % of control | [8] 100 % of control | [9] 90 % of control | [10] 97 % of control | [11] 96 % of control | dose: 400.0 mg/kg/injection, schedule: Q04DX003 (ip), vehicle: other 95 % of control

ClC1CC2CCC1(Cl)C2 (stereo not given)
inactive: [7] 97 % of control | [12] 96 % of control | [9] 92 % of control | [13] 100 % of control | [11] 93 % of control | [14] 96 % of control

CCOC(=O)C(O)C1(Cl)CCC(C(C)(C)C)CC1 (stereo not given)
inactive: dose: 100.0 mg/kg/injection, schedule: Q04DX002 (ip), vehicle: saline 103 % of control | dose: 200.0 mg/kg/injection, schedule: Q04DX002 (ip), vehicle: saline 106 % of control | dose: 400.0 mg/kg/injection, schedule: Q04DX002 (ip), vehicle: saline 106 % of control

CCNc1nc(N)nc2n[nH]nc12
inactive: dose: 50.0 mg/kg/injection, schedule: Q01DX009 (ip), vehicle: saline with Tween-80 95 % of control | dose: 50.0 mg/kg/injection, schedule: Q04DX003 (ip), vehicle: saline with Tween-80 98 % of control | [15] 101 % of control | dose: 100.0 mg/kg/injection, schedule: Q01DX009 (ip), vehicle: saline with Tween-80 89 % of control | dose: 100.0 mg/kg/injection, schedule: Q04DX003 (ip), vehicle: saline with Tween-80 101 % of control | [16] 94 % of control | dose: 200.0 mg/kg/injection, schedule: Q01DX009 (ip), vehicle: saline with Tween-80 89 % of control | dose: 200.0 mg/kg/injection, schedule: Q04DX003 (ip), vehicle: saline with Tween-80 98 % of control

O=C(O)CC(Sc1ccccc1)C(=O)O (stereo not given)
inactive: dose: 100.0 mg/kg/injection, schedule: Q04DX002 (ip), vehicle: saline + alcohol 99 % of control | dose: 200.0 mg/kg/injection, schedule: Q04DX002 (ip), vehicle: saline + alcohol 102 % of control | dose: 400.0 mg/kg/injection, schedule: Q04DX002 (ip), vehicle: saline + alcohol 99 % of control

CCOC(=O)NC(NC(=O)OCC)c1ccc(Cl)cc1Cl
inactive: dose: 100.0 mg/kg/injection, schedule: Q01DX001 (ip), vehicle: carboxymethylcellulose (CMC) 88 % of control | dose: 400.0 mg/kg/injection, schedule: Q01DX001 (ip), vehicle: carboxymethylcellulose (CMC) 88 % of control

CC(=O)Nc1cccc(OC(=O)Nc2ccc([N+](=O)[O-])cc2Cl)c1
inactive: [17] 98 % of control | [18] 97 % of control | dose: 200.0 mg/kg/injection, schedule: Q01DX009 (ip), vehicle: saline 98 % of control | dose: 200.0 mg/kg/injection, schedule: Q04DX003 (ip), vehicle: saline 107 % of control | dose: 400.0 mg/kg/injection, schedule: Q01DX009 (ip), vehicle: saline 102 % of control | dose: 400.0 mg/kg/injection, schedule: Q04DX003 (ip), vehicle: saline 105 % of control

C=C(C)C1CCC2(C(=O)O)CCC3(C)C(CCC4C5(C)CCC(=O)C(C)(C)C5CCC43C)C12 (stereo not given)
inactive: [12] 102 % of control | [13] 96 % of control | [14] 94 % of control

O=[N+]([O-])c1ccc(CSC2=NCCN2)cc1
inactive: dose: 25.0 mg/kg/injection, schedule: Q01DX009 (ip), vehicle: saline 96 % of control | dose: 50.0 mg/kg/injection, schedule: Q01DX009 (ip), vehicle: saline 104 % of control | [17] 98 % of control

CC(=O)COc1ccc([N+](=O)[O-])cc1
inactive: [15] 100 % of control | [16] 102 % of control | dose: 400.0 mg/kg/injection, schedule: Q01DX001 (ip), vehicle: saline with Tween-80 98 % of control

CC1(C)N=C(N)N=C(N)N1c1ccc(Oc2ccc(S(=O)(=O)F)cc2)cc1
inactive: dose: 50.0 mg/kg/injection, schedule: Q01DX001 (ip), vehicle: Klucel (hydroxypropylcellulose) (HPC) 92 % of control | dose: 100.0 mg/kg/injection, schedule: Q01DX001 (ip), vehicle: Klucel (hydroxypropylcellulose) (HPC) 95 % of control | dose: 200.0 mg/kg/injection, schedule: Q01DX001 (ip), vehicle: Klucel (hydroxypropylcellulose) (HPC) 100 % of control

O=C(O)C1CCC(C(=O)O)c2ccccc21 (stereo not given)
inactive: dose: 12.5 mg/kg/injection, schedule: Q04DX003 (ip), vehicle: Klucel (hydroxypropylcellulose) (HPC) 91 % of control | dose: 25.0 mg/kg/injection, schedule: Q04DX003 (ip), vehicle: Klucel (hydroxypropylcellulose) (HPC) 96 % of control | dose: 50.0 mg/kg/injection, schedule: Q04DX003 (ip), vehicle: Klucel (hydroxypropylcellulose) (HPC) 102 % of control | [12] 93 % of control and 91 % of control | [13] 95 % of control | [14] 88 % of control and 91 % of control

CC(C)(C)C1=CC(=O)C(C#N)=C(C#N)C1=O
inactive: [18] 96 % of control

CCOc1c(Br)cc(Br)cc1C=C(C#N)C#N
inactive: dose: 25.0 mg/kg/injection, schedule: Q01DX009 (ip), vehicle: other 102 % of control | dose: 50.0 mg/kg/injection, schedule: Q01DX009 (ip), vehicle: other 98 % of control | [8] 102 % of control | [10] 108 % of control

— PubChem BioAssay AID248 (DTP/NCI, 2004)
